Experimental data: ChEMBL document CHEMBL3233012, “Synthesis, antimicrobial and cytotoxic activities of pyrimidinyl benzoxazole, benzothiazole and benzimidazole” (Eur J Med Chem, 2014)
In brackets after ≈: the same amount, converted by molar mass. Activity calls are given as the source filed them. The calls are words filed in the database; no cut-off is given here.

tested on: Escherichia coli; test: Antimicrobial activity against Escherichia coli at 100 ug/well after 24 hrs by agar well diffusion method; assay type: functional; conditions: read-out: DIZ

Structure (SMILES) | zone of inhibition at 100 µg/disc [mm]
O=C(O)c1cn(C2CC2)c2cc(N3CCNCC3)c(F)cc2c1=O [CIPROFLOXACIN] | 38
Cc1cc(Cl)nc(SCc2nc3ccccc3o2)n1 | 11
Cc1cc(SCc2nc3ccccc3[nH]2)nc(SCc2nc3ccccc3[nH]2)n1 | 35

tested on: Staphylococcus aureus; test: Ratio of MBC to MIC for Staphylococcus aureus ATCC 25923; assay type: functional; conditions: not given

Structure (SMILES) | Ratio
Cc1cc(SCc2nc3ccccc3[nH]2)nc(SCc2nc3ccccc3[nH]2)n1 | 2

tested on: Penicillium chrysogenum; test: Antimicrobial activity against Penicillium chrysogenum at 100 ug/well after 48 hrs by agar well diffusion method; assay type: functional; conditions: read-out: DIZ

Structure (SMILES) | zone of inhibition at 100 µg/disc [mm]
Cc1cc(Cl)nc(SCc2nc3ccccc3o2)n1 | 10
Cc1cc(SCc2nc3ccccc3[nH]2)nc(SCc2nc3ccccc3[nH]2)n1 | 38

tested on: Escherichia coli; test: Antimicrobial activity against Escherichia coli ATCC 25922 after 24 hrs; assay type: functional; conditions: ATCC 25922, 24 h

Structure (SMILES) | MBC [µg/mL]
Cc1cc(SCc2nc3ccccc3[nH]2)nc(SCc2nc3ccccc3[nH]2)n1 | 200 (≈ 478 µM)

tested on: Escherichia coli; test: Antimicrobial activity against Escherichia coli at 25 ug/well after 24 hrs by agar well diffusion method; assay type: functional; conditions: read-out: DIZ

Structure (SMILES) | zone of inhibition at 25 µg/disc [mm]
O=C(O)c1cn(C2CC2)c2cc(N3CCNCC3)c(F)cc2c1=O [CIPROFLOXACIN] | 30
Cc1cc(Cl)nc(SCc2nc3ccccc3o2)n1 | 6
Cc1cc(SCc2nc3ccccc3[nH]2)nc(SCc2nc3ccccc3[nH]2)n1 | 28

tested on: A549; test: Cytotoxicity against human A549 cells assessed as reduction in cell viability up to 200 uM after 20 hrs by MTT assay; assay type: functional, cell-based; conditions: not given

Structure (SMILES) | Activity
Cc1cc(Cl)nc(SCc2nc3ccccc3o2)n1 | inactive
Cc1cc(SCc2nc3ccccc3[nH]2)nc(SCc2nc3ccccc3[nH]2)n1 | inactive

tested on: Pseudomonas aeruginosa; test: Antimicrobial activity against Pseudomonas aeruginosa at 100 ug/well after 24 hrs by agar well diffusion method; assay type: functional; conditions: read-out: DIZ

Structure (SMILES) | zone of inhibition at 100 µg/disc [mm]
O=C(O)c1cn(C2CC2)c2cc(N3CCNCC3)c(F)cc2c1=O [CIPROFLOXACIN] | 30
Cc1cc(Cl)nc(SCc2nc3ccccc3o2)n1 | 8
Cc1cc(SCc2nc3ccccc3[nH]2)nc(SCc2nc3ccccc3[nH]2)n1 | 27

tested on: Penicillium chrysogenum; test: Antimicrobial activity against Penicillium chrysogenum after 24 hrs by broth dilution method; assay type: functional; conditions: not given

Structure (SMILES) | MIC
O=C(O)c1cn(C2CC2)c2cc(N3CCNCC3)c(F)cc2c1=O [CIPROFLOXACIN] | inactive
Cc1cc(SCc2nc3ccccc3[nH]2)nc(SCc2nc3ccccc3[nH]2)n1 | 12.5 µg/mL (≈ 29.9 µM)

tested on: Escherichia coli; test: Antimicrobial activity against Escherichia coli at 50 ug/well after 24 hrs by agar well diffusion method; assay type: functional; conditions: read-out: DIZ

Structure (SMILES) | zone of inhibition at 50 µg/disc [mm]
O=C(O)c1cn(C2CC2)c2cc(N3CCNCC3)c(F)cc2c1=O [CIPROFLOXACIN] | 35
Cc1cc(Cl)nc(SCc2nc3ccccc3o2)n1 | 8
Cc1cc(SCc2nc3ccccc3[nH]2)nc(SCc2nc3ccccc3[nH]2)n1 | 32

tested on: Aspergillus niger; test: Antimicrobial activity against Aspergillus niger at 50 ug/well after 48 hrs by agar well diffusion method; assay type: functional; conditions: read-out: DIZ

Structure (SMILES) | zone of inhibition at 50 µg/disc [mm]
Cc1cc(Cl)nc(SCc2nc3ccccc3o2)n1 | 7
Cc1cc(SCc2nc3ccccc3[nH]2)nc(SCc2nc3ccccc3[nH]2)n1 | 30

tested on: Penicillium chrysogenum; test: Antimicrobial activity against Penicillium chrysogenum at 25 ug/well after 48 hrs by agar well diffusion method; assay type: functional; conditions: not given

Structure (SMILES) | diameter of the inhibition zone (DIZ)
Cc1cc(Cl)nc(SCc2nc3ccccc3o2)n1 | inactive

same assay, conditions: read-out: DIZ

Structure (SMILES) | zone of inhibition at 25 µg/disc [mm]
Cc1cc(SCc2nc3ccccc3[nH]2)nc(SCc2nc3ccccc3[nH]2)n1 | 33

tested on: Pseudomonas aeruginosa; test: Antimicrobial activity against Pseudomonas aeruginosa ATCC 27853 after 24 hrs; assay type: functional; conditions: ATCC 27853, 24 h

Structure (SMILES) | MBC [µg/mL]
Cc1cc(SCc2nc3ccccc3[nH]2)nc(SCc2nc3ccccc3[nH]2)n1 | 100 (≈ 239 µM)

tested on: Aspergillus niger; test: Antimicrobial activity against Aspergillus niger after 24 hrs; assay type: functional; conditions: not given

Structure (SMILES) | MFC [µg/mL]
Cc1cc(SCc2nc3ccccc3[nH]2)nc(SCc2nc3ccccc3[nH]2)n1 | 100 (≈ 239 µM)

tested on: Penicillium chrysogenum; test: Antimicrobial activity against Penicillium chrysogenum at 50 ug/well after 48 hrs by agar well diffusion method; assay type: functional; conditions: read-out: DIZ

Structure (SMILES) | zone of inhibition at 50 µg/disc [mm]
Cc1cc(Cl)nc(SCc2nc3ccccc3o2)n1 | 8
Cc1cc(SCc2nc3ccccc3[nH]2)nc(SCc2nc3ccccc3[nH]2)n1 | 35

tested on: Aspergillus niger; test: Antimicrobial activity against Aspergillus niger at 25 ug/well after 48 hrs by agar well diffusion method; assay type: functional; conditions: not given

Structure (SMILES) | diameter of the inhibition zone (DIZ)
Cc1cc(Cl)nc(SCc2nc3ccccc3o2)n1 | inactive

same assay, conditions: read-out: DIZ

Structure (SMILES) | zone of inhibition at 25 µg/disc [mm]
Cc1cc(SCc2nc3ccccc3[nH]2)nc(SCc2nc3ccccc3[nH]2)n1 | 27

tested on: Pseudomonas aeruginosa; test: Antimicrobial activity against Pseudomonas aeruginosa ATCC 27853 after 24 hrs by broth dilution method; assay type: functional; conditions: ATCC 27853, 24 h

Structure (SMILES) | MIC [µg/mL]
Cc1cc(SCc2nc3ccccc3[nH]2)nc(SCc2nc3ccccc3[nH]2)n1 | 12.5 (≈ 29.9 µM)

tested on: Staphylococcus aureus; test: Antimicrobial activity against Staphylococcus aureus at 100 ug/well after 24 hrs by agar well diffusion method; assay type: functional; conditions: read-out: DIZ

Structure (SMILES) | zone of inhibition at 100 µg/disc [mm]
O=C(O)c1cn(C2CC2)c2cc(N3CCNCC3)c(F)cc2c1=O [CIPROFLOXACIN] | 27
Cc1cc(Cl)nc(SCc2nc3ccccc3o2)n1 | 8
Cc1cc(SCc2nc3ccccc3[nH]2)nc(SCc2nc3ccccc3[nH]2)n1 | 29

tested on: Staphylococcus aureus; test: Antimicrobial activity against Staphylococcus aureus at 25 ug/well after 24 hrs by agar well diffusion method; assay type: functional; conditions: read-out: DIZ

Structure (SMILES) | zone of inhibition at 25 µg/disc [mm]
O=C(O)c1cn(C2CC2)c2cc(N3CCNCC3)c(F)cc2c1=O [CIPROFLOXACIN] | 22
Cc1cc(Cl)nc(SCc2nc3ccccc3o2)n1 | 5
Cc1cc(SCc2nc3ccccc3[nH]2)nc(SCc2nc3ccccc3[nH]2)n1 | 23

tested on: Aspergillus niger; test: Antimicrobial activity against Aspergillus niger after 24 hrs by broth dilution method; assay type: functional; conditions: not given

Structure (SMILES) | MIC
O=C(O)c1cn(C2CC2)c2cc(N3CCNCC3)c(F)cc2c1=O [CIPROFLOXACIN] | inactive
Cc1cc(SCc2nc3ccccc3[nH]2)nc(SCc2nc3ccccc3[nH]2)n1 | 12.5 µg/mL (≈ 29.9 µM)

tested on: Penicillium chrysogenum; test: Antimicrobial activity against Penicillium chrysogenum after 24 hrs; assay type: functional; conditions: not given

Structure (SMILES) | MFC [µg/mL]
Cc1cc(SCc2nc3ccccc3[nH]2)nc(SCc2nc3ccccc3[nH]2)n1 | 25 (≈ 59.7 µM)

tested on: Staphylococcus aureus; test: Antimicrobial activity against Staphylococcus aureus ATCC 25923 after 24 hrs; assay type: functional; conditions: ATCC 25923, 24 h

Structure (SMILES) | MBC [µg/mL]
Cc1cc(SCc2nc3ccccc3[nH]2)nc(SCc2nc3ccccc3[nH]2)n1 | 25 (≈ 59.7 µM)

tested on: Pseudomonas aeruginosa; test: Antimicrobial activity against Pseudomonas aeruginosa at 25 ug/well after 24 hrs by agar well diffusion method; assay type: functional; conditions: read-out: DIZ

Structure (SMILES) | zone of inhibition at 25 µg/disc [mm]
O=C(O)c1cn(C2CC2)c2cc(N3CCNCC3)c(F)cc2c1=O [CIPROFLOXACIN] | 25
Cc1cc(Cl)nc(SCc2nc3ccccc3o2)n1 | 5
Cc1cc(SCc2nc3ccccc3[nH]2)nc(SCc2nc3ccccc3[nH]2)n1 | 22

tested on: Penicillium chrysogenum; test: Ratio of MBC to MIC for Penicillium chrysogenum; assay type: functional; conditions: not given

Structure (SMILES) | Ratio
Cc1cc(SCc2nc3ccccc3[nH]2)nc(SCc2nc3ccccc3[nH]2)n1 | 2

tested on: Escherichia coli; test: Antimicrobial activity against Escherichia coli ATCC 25922 after 24 hrs by broth dilution method; assay type: functional; conditions: ATCC 25922, 24 h

Structure (SMILES) | MIC [µg/mL]
O=C(O)c1cn(C2CC2)c2cc(N3CCNCC3)c(F)cc2c1=O [CIPROFLOXACIN] | 12.5 (≈ 37.7 µM)
Cc1cc(SCc2nc3ccccc3[nH]2)nc(SCc2nc3ccccc3[nH]2)n1 | 50 (≈ 119 µM)

tested on: Aspergillus niger; test: Antimicrobial activity against Aspergillus niger at 100 ug/well after 48 hrs by agar well diffusion method; assay type: functional; conditions: read-out: DIZ

Structure (SMILES) | zone of inhibition at 100 µg/disc [mm]
Cc1cc(Cl)nc(SCc2nc3ccccc3o2)n1 | 9
Cc1cc(SCc2nc3ccccc3[nH]2)nc(SCc2nc3ccccc3[nH]2)n1 | 32

tested on: Pseudomonas aeruginosa; test: Antimicrobial activity against Pseudomonas aeruginosa at 50 ug/well after 24 hrs by agar well diffusion method; assay type: functional; conditions: read-out: DIZ

Structure (SMILES) | zone of inhibition at 50 µg/disc [mm]
O=C(O)c1cn(C2CC2)c2cc(N3CCNCC3)c(F)cc2c1=O [CIPROFLOXACIN] | 28
Cc1cc(Cl)nc(SCc2nc3ccccc3o2)n1 | 7
Cc1cc(SCc2nc3ccccc3[nH]2)nc(SCc2nc3ccccc3[nH]2)n1 | 25

tested on: Staphylococcus aureus; test: Antimicrobial activity against Staphylococcus aureus at 50 ug/well after 24 hrs by agar well diffusion method; assay type: functional; conditions: read-out: DIZ

Structure (SMILES) | zone of inhibition at 50 µg/disc [mm]
O=C(O)c1cn(C2CC2)c2cc(N3CCNCC3)c(F)cc2c1=O [CIPROFLOXACIN] | 24
Cc1cc(Cl)nc(SCc2nc3ccccc3o2)n1 | 7
Cc1cc(SCc2nc3ccccc3[nH]2)nc(SCc2nc3ccccc3[nH]2)n1 | 26

tested on: Staphylococcus aureus; test: Antimicrobial activity against Staphylococcus aureus ATCC 25923 after 24 hrs by broth dilution method; assay type: functional; conditions: ATCC 25923, 24 h

Structure (SMILES) | MIC [µg/mL]
O=C(O)c1cn(C2CC2)c2cc(N3CCNCC3)c(F)cc2c1=O [CIPROFLOXACIN] | 12.5 (≈ 37.7 µM)
Cc1cc(SCc2nc3ccccc3[nH]2)nc(SCc2nc3ccccc3[nH]2)n1 | 12.5 (≈ 29.9 µM)
